# Data reported in patent US6525001B1, “Substituted pyrimidine and pyridine herbicides” (Mid-American Commercialization Corporation, priority 1997, dated 2003).
# Assays:
# Assay type in all cases: in vivo
# [1] = tested on: Italian ryegrass (Lolium multiflorum); experiment: Test D; conditions: PREEMERGENCE
# [2] = tested on: pitted morningglory (Ipomoea lacunosa); experiment: Test E pre-/postemergence/post directed; design: key: 0 is no effect; 100 is complete control; conditions: PREEMERGENCE
# How it was run: (§1)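 Greenhouse pot-grown plants; compound in non-phytotoxic solvent with surfactant applied preemergence to soil within one day of planting, postemergence at two to four leaf stage (three to twenty cm), or post-directed to plant base and soil. Visual injury rated 13 to 21 days after application, 0 (none) to 100 (complete control).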
# [3] = tested on: deadnettle (Lamium amplexicaule); experiment: Test D; design: key: 0 is no effect; 100 is complete control; conditions: POSTEMERGENCE
# Procedure: (§2) Compounds evaluated in this test were formulated in a non-phytotoxic solvent mixture which included a surfactant and applied to plants that were in the 1- to 4-leaf stage (postemergence application). A mixture of sandy loam soil and greenhouse potting mix in a 60:40 ratio was used for the postemergence test.
# (§3) Plantings of these crops and weed species were adjusted to produce plants of appropriate size for the postemergence test. All plant species were grown using normal greenhouse practices. Crop and weed species include alfalfa (Medicago sativa), annual bluegrass (Poa annua), blackgrass (Alopecurus myosuroides), black nightshade (Solanum nigra), chickweed (Stellaria media), common poppy (Papaver rhoeas), deadnettle (Lamium amplexicaule), downy brome (Bromus tectorum), field violet (Viola arvensis), galium 2 (Galium aparine), green foxtail (Setaria viridis), Italian ryegrass (Lolium multiflorum), jointed goatgrass (Aegilops cylindrica), kochia (Kochia scoparia), lambsquarters (Chenopodium album), lentil (Lens culinaris), littleseed canarygrass (Phalaris minor), pea (Pisum sativum), potato (Solanum tuberosum), rape (Brassica napus), redroot pigweed (Amaranthus retroflexus), Russian thistle (Salsola kali), scentless chamomile (Matricaria inodora), sorghum (Sorghum vulgare), spring barley (Hordeum vulgare), sugar beet (Beta vulgaris), sunflower (Helianthus annuus), ivyleaf speedwell (Veronica hederaefolia), spring wheat (Triticum aestivum), winter wheat (Triticum aestivum), wild buckwheat (Polygonum convolvulus), wild mustard (Sinapis arvensis), wild oat (Avena fatua), windgrass (Apera spica-venti) and winter barley (Hordeum vulgare).
# (§4) Treated plants and untreated controls were maintained in a greenhouse for approximately 21 to 28 days, after which all treated plants were compared to untreated controls and visually evaluated. Plant response ratings, summarized in Table D, are based upon a 0 to 100 scale where 0 is no effect and 100 is complete control. A dash response (−) means no test result.
# rape (Brassica napus) = experiment: Test D; design: key: 0 is no effect; 100 is complete control; conditions: POSTEMERGENCE
# Procedure: as §2, §3, §4
# [4] = tested on: quackgrass (Agropyron repens); experiment: Test E pre-/postemergence/post directed; design: key: 0 is no effect; 100 is complete control; conditions: PREEMERGENCE
# How it was run: as §1
# [5] = tested on: green foxtail (Setaria viridis); experiment: Test E pre-/postemergence/post directed; design: key: 0 is no effect; 100 is complete control; conditions: PREEMERGENCE
# How it was run: as §1
# [6] = tested on: arrowleaf sida (Sida rhombifolia); experiment: Test E pre-/postemergence/post directed; design: key: 0 is no effect; 100 is complete control; conditions: PREEMERGENCE
# How it was run: as §1
# [7] = tested on: Spanishneedles (Bidens bipinnata); experiment: Test E pre-/postemergence/post directed; design: key: 0 is no effect; 100 is complete control; conditions: PREEMERGENCE
# How it was run: as §1
# B. signalgrass = experiment: Test E pre-/postemergence/post directed; design: key: 0 is no effect; 100 is complete control; conditions: PREEMERGENCE
# How it was run: as §1
# [8] = tested on: leafy spurge (Euphorbia esula); experiment: Test E pre-/postemergence/post directed; design: key: 0 is no effect; 100 is complete control; conditions: PREEMERGENCE
# How it was run: as §1
# [9] = tested on: johnson grass (Sorghum halepense); experiment: Test E pre-/postemergence/post directed; design: key: 0 is no effect; 100 is complete control; conditions: PREEMERGENCE
# How it was run: as §1
# [10] = tested on: annual bluegrass (Poa annua); experiment: Test E pre-/postemergence/post directed; design: key: 0 is no effect; 100 is complete control; conditions: PREEMERGENCE
# How it was run: as §1
# [11] = tested on: common chickweed (Stellaria media); experiment: Test E pre-/postemergence/post directed; design: key: 0 is no effect; 100 is complete control; conditions: PREEMERGENCE
# How it was run: as §1
# [12] = tested on: alexandergrass (Brachiaria plantaginea); experiment: Test E pre-/postemergence/post directed; design: key: 0 is no effect; 100 is complete control; conditions: PREEMERGENCE
# How it was run: as §1
# [13] = tested on: sandbur (Cenchrus echinatus); experiment: Test E pre-/postemergence/post directed; design: key: 0 is no effect; 100 is complete control; conditions: PREEMERGENCE
# How it was run: as §1
structure (smiles),measurement,setting,value
Cc1cnc(-n2cnc(C(F)(F)F)n2)nc1Cn1ccc(C(F)(F)F)n1 [Compound 51],"Plant response rating, I. Ryegrass",[1]; Rate 31 g/ha,60
same,"Plant response rating, I. Ryegrass",[1]; Rate 62 g/ha,90
Cc1cnc(-n2ccc(C(F)(F)F)n2)nc1Cn1ccc(C(F)(F)F)n1 [Compound 52],"Plant response rating, P. morninglory",[2]; Rate 64 g/ha,100
same,"Plant response rating, P. morninglory",[2]; Rate 125 g/ha,100
same,"Plant response rating, I. Ryegrass",[1]; Rate 31 g/ha,30
same,"Plant response rating, I. Ryegrass",[1]; Rate 62 g/ha,70
same,"Plant response rating, I. Ryegrass",[1]; Rate 125 g/ha,70
same,"Plant response rating, Deadnettle",[3]; Rate 16 g/ha,45
same,"Plant response rating, Deadnettle",[3]; Rate 31 g/ha,100
same,"Plant response rating, Deadnettle",[3]; Rate 62 g/ha,100
same,"Plant response rating, Deadnettle",[3]; Rate 125 g/ha,98
same,"Plant response rating, Rape",rape (Brassica napus); Rate 16 g/ha,65
same,"Plant response rating, Rape",rape (Brassica napus); Rate 31 g/ha,65
same,"Plant response rating, Rape",rape (Brassica napus); Rate 62 g/ha,98
same,"Plant response rating, Rape",rape (Brassica napus); Rate 125 g/ha,85
"Cc1cnc(-c2ccc(C(F)(F)F)cc2)nc1Cc1cccc(C(F)(F)F)c1 [Example 1, 5-methyl-2-[4-(trifluoromethyl)phenyl]-4-[[3-(trifluoromethyl)phenyl]methyl]pyrimidine]","Plant response rating, Quackgrass",[4]; Rate 32 g/ha,65
same,"Plant response rating, Quackgrass",[4]; Rate 64 g/ha,80
same,"Plant response rating, Quackgrass",[4]; Rate 125 g/ha,100
same,"Plant response rating, Green foxtail",[5]; Rate 32 g/ha,100
same,"Plant response rating, Green foxtail",[5]; Rate 64 g/ha,100
same,"Plant response rating, Green foxtail",[5]; Rate 125 g/ha,100
same,"Plant response rating, Arrowleaf sida",[6]; Rate 32 g/ha,98
same,"Plant response rating, Arrowleaf sida",[6]; Rate 64 g/ha,98
same,"Plant response rating, Arrowleaf sida",[6]; Rate 125 g/ha,100
same,"Plant response rating, Spanishneedles",[7]; Rate 250 g/ha,100
same,"Plant response rating, P. morninglory",[2]; Rate 125 g/ha,100
same,"Plant response rating, P. morninglory",[2]; Rate 250 g/ha,100
same,"Plant response rating, B. signalgrass",B. signalgrass; Rate 32 g/ha,20
same,"Plant response rating, B. signalgrass",B. signalgrass; Rate 64 g/ha,90
same,"Plant response rating, B. signalgrass",B. signalgrass; Rate 125 g/ha,100
same,"Plant response rating, Leafy spurge",[8]; Rate 32 g/ha,75
same,"Plant response rating, Leafy spurge",[8]; Rate 64 g/ha,95
same,"Plant response rating, Leafy spurge",[8]; Rate 125 g/ha,100
same,"Plant response rating, Johnsongrass",[9]; Rate 250 g/ha,100
same,"Plant response rating, A. bluegrass",[10]; Rate 32 g/ha,90
same,"Plant response rating, A. bluegrass",[10]; Rate 64 g/ha,100
same,"Plant response rating, A. bluegrass",[10]; Rate 125 g/ha,100
same,"Plant response rating, Com. chickweed",[11]; Rate 32 g/ha,30
same,"Plant response rating, Com. chickweed",[11]; Rate 64 g/ha,95
same,"Plant response rating, Com. chickweed",[11]; Rate 125 g/ha,100
same,"Plant response rating, Alexandergrass",[12]; Rate 250 g/ha,100
same,"Plant response rating, Sandbur",[13]; Rate 250 g/ha,100
same,"Plant response rating, I. Ryegrass",[1]; Rate 31 g/ha,10
same,"Plant response rating, I. Ryegrass",[1]; Rate 62 g/ha,40
same,"Plant response rating, Deadnettle",[3]; Rate 16 g/ha,85
same,"Plant response rating, Deadnettle",[3]; Rate 31 g/ha,70
same,"Plant response rating, Deadnettle",[3]; Rate 62 g/ha,70
same,"Plant response rating, Deadnettle",[3]; Rate 125 g/ha,70
same,"Plant response rating, Rape",rape (Brassica napus); Rate 16 g/ha,65
same,"Plant response rating, Rape",rape (Brassica napus); Rate 31 g/ha,100
same,"Plant response rating, Rape",rape (Brassica napus); Rate 62 g/ha,100
same,"Plant response rating, Rape",rape (Brassica napus); Rate 125 g/ha,85
"Cc1cnc(-n2ccc(C(F)(F)F)n2)nc1Cc1cccc(C(F)(F)F)c1 [Example 2, 5-methyl-4-[[3-(trifluoromethyl)phenyl]methyl]-2-[3-(trifluoromethyl)-1H-pyrazol-1-yl]pyrimidine]","Plant response rating, Quackgrass",[4]; Rate 32 g/ha,20
same,"Plant response rating, Quackgrass",[4]; Rate 64 g/ha,90
same,"Plant response rating, Quackgrass",[4]; Rate 125 g/ha,100
same,"Plant response rating, Quackgrass",[4]; Rate 250 g/ha,100
same,"Plant response rating, Green foxtail",[5]; Rate 32 g/ha,90
same,"Plant response rating, Green foxtail",[5]; Rate 64 g/ha,100
same,"Plant response rating, Green foxtail",[5]; Rate 125 g/ha,100
same,"Plant response rating, Green foxtail",[5]; Rate 250 g/ha,100
same,"Plant response rating, Arrowleaf sida",[6]; Rate 32 g/ha,98
same,"Plant response rating, Arrowleaf sida",[6]; Rate 64 g/ha,100
same,"Plant response rating, Arrowleaf sida",[6]; Rate 125 g/ha,100
same,"Plant response rating, Arrowleaf sida",[6]; Rate 250 g/ha,100
same,"Plant response rating, Spanishneedles",[7]; Rate 64 g/ha,100
same,"Plant response rating, Spanishneedles",[7]; Rate 125 g/ha,100
same,"Plant response rating, Spanishneedles",[7]; Rate 250 g/ha,100
same,"Plant response rating, Spanishneedles",[7]; Rate 500 g/ha,100
same,"Plant response rating, P. morninglory",[2]; Rate 32 g/ha,100
same,"Plant response rating, P. morninglory",[2]; Rate 64 g/ha,100
same,"Plant response rating, P. morninglory",[2]; Rate 125 g/ha,100
same,"Plant response rating, P. morninglory",[2]; Rate 250 g/ha,100
same,"Plant response rating, P. morninglory",[2]; Rate 500 g/ha,100
same,"Plant response rating, B. signalgrass",B. signalgrass; Rate 32 g/ha,65
same,"Plant response rating, B. signalgrass",B. signalgrass; Rate 64 g/ha,100
same,"Plant response rating, B. signalgrass",B. signalgrass; Rate 125 g/ha,100
same,"Plant response rating, B. signalgrass",B. signalgrass; Rate 250 g/ha,100
same,"Plant response rating, Leafy spurge",[8]; Rate 32 g/ha,60
same,"Plant response rating, Leafy spurge",[8]; Rate 64 g/ha,98
same,"Plant response rating, Leafy spurge",[8]; Rate 125 g/ha,100
same,"Plant response rating, Leafy spurge",[8]; Rate 250 g/ha,100
same,"Plant response rating, Johnsongrass",[9]; Rate 250 g/ha,100
same,"Plant response rating, Johnsongrass",[9]; Rate 500 g/ha,100
same,"Plant response rating, A. bluegrass",[10]; Rate 32 g/ha,80
same,"Plant response rating, A. bluegrass",[10]; Rate 64 g/ha,100
same,"Plant response rating, A. bluegrass",[10]; Rate 125 g/ha,100
same,"Plant response rating, A. bluegrass",[10]; Rate 250 g/ha,100
same,"Plant response rating, Com. chickweed",[11]; Rate 32 g/ha,100
same,"Plant response rating, Com. chickweed",[11]; Rate 64 g/ha,100
same,"Plant response rating, Com. chickweed",[11]; Rate 125 g/ha,100
same,"Plant response rating, Com. chickweed",[11]; Rate 250 g/ha,100
same,"Plant response rating, Alexandergrass",[12]; Rate 125 g/ha,100
same,"Plant response rating, Alexandergrass",[12]; Rate 250 g/ha,100
same,"Plant response rating, Alexandergrass",[12]; Rate 500 g/ha,100
same,"Plant response rating, Sandbur",[13]; Rate 250 g/ha,100
same,"Plant response rating, Sandbur",[13]; Rate 500 g/ha,100
Cc1cnc(-c2ccc(C(F)(F)F)cc2)nc1Cn1ccc(C(F)(F)F)n1 [compound 9],"Plant response rating, P. morninglory",[2]; Rate 250 g/ha,100
same,"Plant response rating, Alexandergrass",[12]; Rate 250 g/ha,100
